Test results taken from patent US20090105266A1, “Organic compounds” (priority 2007, published 2009).

Biological target: T1, mGluR5 (Homo sapiens, UniProt P41594)
T1 construct: expressed in transfected cells
Experiment: inhibition of the glutamate (agonist) induced elevation of the inositol phosphate turnover
Type: cell-based
Conditions: inhibition of glutamate induced elevation of inositol phosphate turnover at 0.1 μM
Source text: This can be determined in vitro for example at recombinant human metabotropic glutamate receptors, especially PLC-coupled subtypes thereof such as mGluR5, using different procedures like, for example, measurement of the inhibition of the agonist induced elevation of intracellular Ca^2+ concentration in accordance with L. P. Daggett et al., Neuropharm. Vol. 34, pages 871-886 (1995), P. J. Flor et al., J. Neurochem. Vol. 67, pages 58-63 (1996) or by determination to what extent the agonist induced elevation of the inositol phosphate turnover is inhibited as described by T. Knoepfel et al., Eur. J. Pharmacol. Vol. 288, pages 389-392 (1994), L. P. Daggett et al., Neuropharm. Vol. 67, pages 58-63 (1996) and references cited therein. Isolation and expression of human mGluR subtypes are described in U.S. Pat. No. 5,521,297. Selected agents of the invention show IC50 values for the inhibition of the agonist (e.g. glutamate or quisqualate) induced elevation of intracellular Ca2+ concentration or the agonist (e.g. glutamate or quisqualate) induced inositol phosphate turnover, measured in recombinant cells expressing hmGluR^5a of about 0.1 nM to about 50 μM.
Activity of compounds of the present invention was examined by determination to what extent the agonist induced elevation of the inositol phosphate turnover is inhibited as described by T. Knoepfel et al., Eur. J. Pharmacol. Vol. 288, pages 389-392 (1994), L. P. Daggett et al., Neuropharm. Vol. 67, pages 58-63 (1996) and references cited therein.
The table below represents percentages of inhibition of the glutamate induced elevation of the inositol phosphate turnover at a concentration of 0.1 μM.

T1 sequence (P41594 21-1180 isoform P41594-2 limits assumed): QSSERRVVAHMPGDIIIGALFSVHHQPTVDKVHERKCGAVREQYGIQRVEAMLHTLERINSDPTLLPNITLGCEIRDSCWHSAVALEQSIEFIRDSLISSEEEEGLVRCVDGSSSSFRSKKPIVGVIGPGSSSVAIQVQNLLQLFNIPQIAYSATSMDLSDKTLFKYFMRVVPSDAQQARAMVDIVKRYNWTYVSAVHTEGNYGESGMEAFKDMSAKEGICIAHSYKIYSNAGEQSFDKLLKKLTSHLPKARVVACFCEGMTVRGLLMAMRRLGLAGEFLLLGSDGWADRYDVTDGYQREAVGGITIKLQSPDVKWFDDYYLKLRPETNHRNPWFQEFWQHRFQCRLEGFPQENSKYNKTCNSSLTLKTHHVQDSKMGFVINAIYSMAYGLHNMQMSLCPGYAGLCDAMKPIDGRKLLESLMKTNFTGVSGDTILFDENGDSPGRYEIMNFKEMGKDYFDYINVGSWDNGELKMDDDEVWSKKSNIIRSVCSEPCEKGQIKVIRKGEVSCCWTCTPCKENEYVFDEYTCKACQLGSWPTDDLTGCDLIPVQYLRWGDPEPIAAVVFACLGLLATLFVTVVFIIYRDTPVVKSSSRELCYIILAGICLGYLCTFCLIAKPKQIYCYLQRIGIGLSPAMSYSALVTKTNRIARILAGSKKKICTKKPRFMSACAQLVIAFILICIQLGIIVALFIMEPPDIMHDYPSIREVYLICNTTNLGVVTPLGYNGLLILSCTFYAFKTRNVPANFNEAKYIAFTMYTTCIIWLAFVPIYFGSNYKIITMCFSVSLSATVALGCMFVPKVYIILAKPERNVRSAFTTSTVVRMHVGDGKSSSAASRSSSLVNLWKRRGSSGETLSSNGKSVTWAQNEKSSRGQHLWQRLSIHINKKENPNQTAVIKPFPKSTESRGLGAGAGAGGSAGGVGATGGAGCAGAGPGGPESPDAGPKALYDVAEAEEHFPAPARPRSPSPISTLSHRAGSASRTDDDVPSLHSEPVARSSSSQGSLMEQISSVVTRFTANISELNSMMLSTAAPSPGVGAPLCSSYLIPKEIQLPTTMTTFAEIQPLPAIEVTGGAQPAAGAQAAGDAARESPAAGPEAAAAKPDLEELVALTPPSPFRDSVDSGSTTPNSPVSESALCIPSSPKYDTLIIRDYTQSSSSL

Compound: CCCn1c(-c2ccc(Nc3ccc(OC)cc3)c(Cl)c2)nc2cccc(Cl)c21 [Example 97, [2-Chloro-4-(7-chloro-1-propyl-1H-benzoimidazol-2-yl)-phenyl]-(4-methoxy-phenyl)-amine]
- inhibition at 0.1 µM: 98%

Compound: CCCn1c(-c2ccc(Nc3ccc(C)nc3)c(Cl)c2)nc2cccc(Cl)c21 [Example 98, [2-Chloro-4-(7-chloro-1-propyl-1H-benzoimidazol-2-yl)-phenyl]-(6-methyl-pyridin-3-yl)-amine]
- inhibition at 0.1 µM: 103%

Compound: CCCn1c(-c2ccc(Nc3ccc(OC)cc3)nc2)nc2cccc(Cl)c21 [Example 99, [5-(7-Chloro-1-propyl-1H-benzoimidazol-2-yl)-pyridin-2-yl]-(4-methoxy-phenyl)-amine]
- inhibition at 0.1 µM: 99%

Compound: CCCn1c(-c2ccc(Nc3ccc(C)nc3)nc2)nc2cccc(Cl)c21 [Example 100, [5-(7-Chloro-1-propyl-1H-benzoimidazol-2-yl)-pyridin-2-yl]-(6-methyl-pyridin-3-yl)-amine]
- inhibition at 0.1 µM: 100%

Compound: CCCn1c(-c2ccc(Nc3ccc(Cl)cc3)nc2)nc2cccc(Cl)c21 [Example 101, (4-Chloro-phenyl)-[5-(7-chloro-1-propyl-1H-benzoimidazol-2-yl)-pyridin-2-yl]-amine]
- inhibition at 0.1 µM: 95%

Compound: CCCn1c(-c2ccc(Nc3ccc(C)nc3)nc2)nc2ccccc21 [Example 102, (6-Methyl-pyridin-3-yl)-[5-(1-propyl-1H-benzoimidazol-2-yl)-pyridin-2-yl]-amine]
- inhibition at 0.1 µM: 90%

Compound: CCCn1c(-c2ccc(Nc3ccc(C)cc3)nc2)nc2cccc(Cl)c21 [Example 103, [5-(7-Chloro-1-propyl-1H-benzoimidazol-2-yl)-pyridin-2-yl]-p-tolyl-amine]
- inhibition at 0.1 µM: 97%

Compound: CCCn1c(-c2ccc(Nc3ccc(Cl)cc3)nc2)nc2ccc(F)cc21 [Example 104, (4-Chloro-phenyl)-[5-(6-fluoro-1-propyl-1H-benzoimidazol-2-yl)-pyridin-2-yl]-amine]
- inhibition at 0.1 µM: 84%

Compound: CCCn1c(-c2ccc(Nc3ccc(C)nc3)nc2)nc2ccc(F)cc21 [Example 105, [5-(6-Fluoro-1-propyl-1H-benzoimidazol-2-yl)-pyridin-2-yl]-(6-methyl-pyridin-3-yl)-amine]
- inhibition at 0.1 µM: 85%

Compound: CCCn1c(-c2ccc(Nc3ccc(C)cc3)nc2)nc2ccc(F)cc21 [Example 106, [5-(6-Fluoro-1-propyl-1H-benzoimidazol-2-yl)-pyridin-2-yl]-p-tolyl-amine]
- inhibition at 0.1 µM: 70%

Compound: CCCn1c(-c2ccc(Nc3ccc(OC)cc3)nc2)nc2ccc(F)cc21 [Example 107, [5-(6-Fluoro-1-propyl-1H-benzoimidazol-2-yl)-pyridin-2-yl]-(4-methoxy-phenyl)-amine]
- inhibition at 0.1 µM: 64%

Compound: Cc1ccc(Nc2ccc(-c3nc4cccc(Cl)c4n3CC(C)C)cn2)cc1 [Example 108, [5-(7-Chloro-1-isobutyl-1H-benzoimidazol-2-yl)-pyridin-2-yl]-p-tolyl-amine]
- inhibition at 0.1 µM: 98%

Compound: CC(C)Cn1c(-c2ccc(Nc3ccc(Cl)cc3)nc2)nc2cccc(Cl)c21 [Example 109, [5-(7-Chloro-1-isobutyl-1H-benzoimidazol-2-yl)-pyridin-2-yl]-(4-chloro-phenyl)-amine]
- inhibition at 0.1 µM: 91%

Compound: COc1ccc(Nc2ccc(-c3nc4cccc(Cl)c4n3CC(C)C)cn2)cc1 [Example 110, [5-(7-Chloro-1-isobutyl-1H-benzoimidazol-2-yl)-pyridin-2-yl]-(4-methoxy-phenyl)-amine]
- inhibition at 0.1 µM: 95%

Compound: Cc1ccc(Nc2ccc(-c3nc4cccc(Cl)c4n3CC(C)C)cn2)cn1 [Example 111, [5-(7-Chloro-1-isobutyl-1H-benzoimidazol-2-yl)-pyridin-2-yl]-(6-methyl-pyridin-3-yl)-amine]
- inhibition at 0.1 µM: 97%

Compound: CCCn1c(-c2cnc(Nc3ccc(OC)cc3)c(Cl)c2)nc2ccccc21 [Example 114, [3-Chloro-5-(1-propyl-1H-benzoimidazol-2-yl)-pyridin-2-yl]-(4-methoxy-phenyl)-amine]
- inhibition at 0.1 µM: 99%

Compound: COc1ccc(Nc2ncc(-c3nc4cccc(Cl)c4n3CC(C)C)cc2Cl)cc1 [Example 114b, [3-chloro-5-(7-chloro-1-isobutyl-1H-benzoimidazol-2-yl)-pyridin-2-yl]-(4-methoxy-phenyl)-amine]
- inhibition at 0.1 µM: 100%

Compound: Cc1ccc(Nc2ncc(-c3nc4cccc(Cl)c4n3CC(C)C)cc2Cl)cn1 [Example 114c, [3-chloro-5-(7-chloro-1-isobutyl-1H-benzoimidazol-2-yl)-pyridin-2-yl]-(6-methyl-pyridin-3-yl)-amine]
- inhibition at 0.1 µM: 111%

Compound: CCCn1c(-c2ccc(Nc3ccc(OC)cc3)nc2)nc2cccc(F)c21 [Example 114d, [5-(7-fluoro-1-propyl-1H-benzoimidazol-2-yl)-pyridin-2-yl]-(4-methoxy-phenyl)-amine]
- inhibition at 0.1 µM: 82%

Compound: CCCn1c(-c2ccc(Nc3ccc(C)nc3)c(Cl)c2)nc2ccc(F)cc21 [Example 115, [2-Chloro-4-(6-Fluoro-1-propyl-1H-benzoimidazol-2-yl)-phenyl]-(6-methyl-pyridin-3-yl)-amine]
- inhibition at 0.1 µM: 99%

Compound: Cc1ccc(Nc2ccc(-c3nc4cccc(Cl)c4n3CC(C)C)cc2Cl)cn1 [Example 116, [2-Chloro-4-(7-Chloro-1-isobutyl-1H-benzoimidazol-2-yl)-phenyl]-(6-methyl-pyridin-3-yl)-amine]
- inhibition at 0.1 µM: 100%
